Data taken from PMC11434980, “Deciphering Chemical Rules for Drug Penetration into Strongyloides” (Pharmaceutics, 2024).
Values joined by “and” are separate entries in the source; they are usually repeats but may differ in a detail not shown here. Equal values may be shown once. Read-outs that look alike come from different tables or passages of the source.

How the values were obtained:
[1] = tested on: parasitic females of S. venezuelensis; assay: In vitro activity against adult females (movement categories); type: cell-based, Strongyloides venezuelensis; conditions: 10 µM, 50–70 worms per well
Experimental: Seven to nine days after infection, the mice or rats were euthanized and the small intestine was removed, sliced longitudinally, minced, and placed in a sedimentation cup wrapped in 8 layers of gauze in phosphate-buffered solution (PBS) for two hours at 37 °C. Parasitic females were collected from the sediment and washed twice with saline solution (NaCl 0.15 mol/L) and twice with Roswell Park Memorial Institute 1640 (RPMI 1640) (Gibco, Whaltman, MA, USA) supplemented with 10% heat-inactivated FBS, 100 µg/mL streptomycin, and 100 U/mL penicillin (Gibco, Whaltman, MA, USA) to avoid contamination during the in vitro assays. After collection, females were placed in 96-well plates with supplemented RPMI medium and kept at 37 °C. We tested three different female population densities to explore the effects on the measured activity: 1–3 females, 10–15 females, and 50–70 females per well. At 24 h after plating, the compounds were applied at 10 µM and the anti-parasitic activity was evaluated at 1, 24, 48, and 72 h after treatment based on movement for 30 s observation periods under the microscope (40×). […] All experiments were conducted in duplicate and at least three different times. […]

[2] = tested on: HeLa (human cervical cancer) cell line; assay: Cytotoxicity, MTT method; type: cell-based
Experimental: (§1) A cytotoxicity test was performed using the HeLa (human cervical cancer) cell line according to the MTT method. Cells were from the ATCC (Manassas, VA, USA). They were cultured at 37 °C in sub-confluent conditions under a 95% humidified atmosphere and 5% CO2 in Dulbecco’s Modified Eagle Medium (DMEM) (Gibco, Whaltman, MA, USA) supplemented with 10% heat-inactivated FBS, 2 mM L-glutamine, 100 U/mL penicillin, and 100 µg/mL streptomycin. […] The antiproliferative activity was measured in triplicate after 72 h using the MTT (3-(4,5-dimethylthiazol-2-yl)-2,5-diphenyltetrazolium bromide) Cell Proliferation Kit (Roche, Boston, MA, USA), following the manufacturer’s specifications. […] The selectivity index (SI = HeLa IC50/L3 IC50) for each compound was calculated to compare the antiparasitic activity with its respective human cell cytotoxicity.

S. venezuelensis L3s [3] = assay: microbe, parasite or virus in culture; conditions: L3s
Experimental: (§2) Baerman-obtained S. venezuelensis L3s were rinsed twice with distilled water and counted, and 100 to 150 larvae were placed per well in 96-well flat-bottom culture plates. Larvae were incubated at 28 °C for 30 min to allow adaptation and treated with compounds in the range of 0.5–40 µM for 72 h at 28 °C in a humid atmosphere. Mortality was assessed as the lack of any movement detected during 1 min of observation under an inverted microscope (40×), at 24, 48, and 72 h after treatment. The ability to stain the larvae was pointed out when observed; at 72 h, larvae were collected and washed two times with distilled water and placed in a new well to remove the background color and photographed. Pictures were also taken at 24 and 48 h without cleaning the larvae so as not to interfere with the 72 h readout of the experiment. […] All experiments were conducted in triplicate and at least three different times. The antiparasitic activity of the compounds was expressed as the concentration that inhibited the motility of half of the larvae (immobilization concentration 50, IC50).
A total of 15 dyes were tested against S. venezuelensis L3s at a 20 µM concentration. The activity was determined by the number of larvae lacking motility relative to the total number in the well after 1 min of light excitation at 24, 48, and 72 h after treatment.

[4] = tested on: parasitic females of S. venezuelensis; set-up: method as in PMID 35914566; conditions: never achieving complete absence of movement at these concentrations; read-out: IC50 against adult females (literature); cited from earlier work
[5] = tested on: S. venezuelensis experimental infections of mice; assay: In vivo activity in S. venezuelensis experimental infection of mice (eggs in feces, parthenogenetic females); set-up: species or system Strongyloides venezuelensis; conditions: for reduction in the number of parthenogenetic females: day 8 p.i., compared to infection group; for parthenogenetic females recovered per mouse at day 8 p.i.: ivermectin 0.2 mg/kg oral day 5 p.i., dyes 20 mg/kg/day day 0 to 5 p.i.
Experimental: All animals were infected by subcutaneous injection with 3000 […] of S. venezuelensis resuspended in PBS. […] The eggs per gram was reported. The recovery of parasite females was performed as described above. The mean was determined for the eggs per gram (EPG) of feces and parthenogenetic female counts. The color of the feces and urine in the beds was recorded.

S. venezuelensis L3s [6] = assay: Staining (uptake) of L3 larvae by the dyes; type: cell-based, Strongyloides venezuelensis; conditions: for lowest staining concentration (Conc): 72 h
Experimental: as §2

[7] = tested on: parasitic females of S. venezuelensis; assay: In vitro activity against adult females (movement categories); type: cell-based, Strongyloides venezuelensis; conditions: 72 h
Cytotoxicity, MTT method = type: cell-based, human; conditions: human; HeLa cells, 72 h, MTT; read-out: HeLa IC50 (antiproliferative activity / cytotoxicity)
Experimental: as §1

[8] = tested on: parasitic females of S. venezuelensis; assay: Staining of adult females by the dyes; type: cell-based, Strongyloides venezuelensis; conditions: 10 µM
[9] = read-out: IC50 72 h (immobilization concentration 50 of cultured L3s), 72 h

Row | Compound | effect on adult females [1] | Activity against parasitic females 1 h [1] | Activity against parasitic females 24 h [1] | Activity against parasitic females 48 h [1] | Activity against parasitic females 72 h [1] | Screening 20 µM 72 h (S. venezuelensis L3s [3]; 72 h) | IC50 (S. venezuelensis L3s [3]; [9]) [nM] | reduction in the number of parthenogenetic females [5] [%] | parthenogenetic females recovered per mouse at day 8 p.i. [5] | Staining 72 h (L3 staining ability) (S. venezuelensis L3s [6]) | lowest staining concentration (Conc) (S. venezuelensis L3s [6]) [µM] | IC50 at 72 h (Cytotoxicity, MTT method) [nM] | Staining of parasitic females [8] | staining of adult females [8] | selectivity index (SI = HeLa IC50/L3 IC50) [2] | activity against L3 at 40 µM (S. venezuelensis L3s [3]) | also measured
1 | Ivermectin | noticeable spasmodic movement | Affected | Affected | Slightly affected | Slightly affected | Active | 1500 ± 300 | 91.5 | 29 ± 12.3 and 29 | – | – | – | – | – | – | – | IC50 ([2]; HeLa cells, 72 h, MTT, read-out: HeLa IC50 (antiproliferative activity / cytotoxicity)): 5900 nM; IC50 (S. venezuelensis L3s [3]; read-out: IC50 24 h (immobilization concentration 50 of cultured L3s), 24 h): 2100 ± 100 nM; IC50 (S. venezuelensis L3s [3]; read-out: IC50 48 h (immobilization concentration 50 of cultured L3s), 48 h): 1600 ± 300 nM; IC50 [4]: > 229000 nM; Eggs in feces at peak, day 5 p.i. ([5]; ivermectin (Noromectin) single oral dose 0.2 mg/kg on day 5 p.i.): 20,534 ± 15,961 eggs per gram
2 | CN(C)c1ccc2nc3ccc(=[N+](C)C)cc-3sc2c1 [Methylene Blue] | significantly affected | Healthy | Affected | Death | Death | – | 4300 ± 300 | – | – | Yes | 1 | 1100 | Yes | clearly stained | – | – | IC50 [7]: 6020 nM; Staining (Time) ([8]; time at which staining of females was seen): 24 h
3 | CCCSc1ccc2nc(NC(=O)OC)[nH]c2c1 [Albendazole] | slightly reduced movement | Healthy | Healthy | Slightly affected | Slightly affected | No | – | – | – | – | – | 300 | – | – | < 0.0075 | no activity | –
4 | COC(=O)Nc1nc2ccc(C(=O)c3ccccc3)cc2[nH]1 [Mebendazole] | slightly reduced movement | Healthy | Healthy | Slightly affected | Slightly affected | No | – | – | – | – | – | 200 | – | – | < 0.005 | no activity | –
5 | CN(C)c1ccc(C(=C2C=CC(=[N+](C)C)C=C2)c2ccc(N(C)C)cc2)cc1 [Crystal Violet] | – | Healthy | Healthy | Slightly affected | Slightly affected | Active | – | 46.5 | 182 | Yes | 2 | 1000 | No | did not stain | 0.31 | – | –
